Laboratory results: patent US20030171340A1 (priority 2002, published 2003)

How the values were obtained:
[1] = test system: Pseudomonas isolate (Ps isolate, Susquehanna flats); experiment: Growth of Pseudomonas isolate in TSB in the presence of tetracycline, metal cations or tetracycline metal complexes; type: cell-based; details: for Ps isolate growth (S/I/+4): experiment D
Procedure: (§1) Individual components were tested for inhibition or enhancement of Pseudomonas isolated from the site.

[2] = test system: New Ps isolate from sediment; experiment: Growth of new Ps isolate from sediment in the presence of tetracycline or tetracycline-Fe2+ complex; type: cell-based, Pseudomonas; details: experiment C
Procedure: as §1

| Compound | Ps isolate growth ([1]; experiment A, metal cation alone, 1 mL TSB + 4 μl (4 μg/mL)) | Ps isolate growth (S/I/+4) ([1]; 1 μg/mL) | Ps isolate growth (S/I/+4) ([1]; 4 μg/mL) | Ps isolate growth (S/I/+4) ([1]; 8 μg/mL) | Ps isolate growth (S/I/+4) ([1]; metal cation alone, concentration not given) | Ps isolate growth (R/I/S) ([2]; 8 μg/mL) | Ps isolate growth (R/I/S) ([2]; 40 μg/mL) | Ps isolate growth (R/I/S) ([2]; 100 μg/mL) |
| --- | --- | --- | --- | --- | --- | --- | --- | --- |
| copper acetate [Cu^2+] | Growth | +4 | I | S (no growth) | +4 | – | – | – |
| CN(C)[C@@H]1C(O)=C(C(N)=O)C(=O)[C@@]2(O)C(O)=C3C(=O)c4c(O)cccc4[C@@](C)(O)[C@H]3C[C@@H]12 [tetracycline] | – | – | – | – | – | R | R | R |
